The IC50 is the concentration needed to halve the response being measured.

Where two headings read alike, the source gives them in different places.

What all share (format): cell-based
The subject of experiment [1] is KRas-mediated Phosphorylation of ERK in A549 cells. The experiment can be described thus: Cisbio HTRF pERK assay, A549 cells. To be noted: A549 cells, 3 hrs compound, read-out: Inhibition (HTRF IC50 nM) of KRas-mediated Phosphorylation of ERK, A549.
Experiment [2] relates to KRas-mediated Phosphorylation of ERK in H727 cells. Description: Cisbio HTRF pERK assay, H727 cells. To be noted: 3 hrs compound, read-out: Inhibition (HTRF IC50 nM) of KRas-mediated Phosphorylation of ERK, H727. In general terms: Time-resolved FRET reads energy transfer from a long-lived donor to a nearby acceptor.
The test system of experiment [3] is KRas-mediated Phosphorylation of ERK in H358 cells. The experiment can be described thus: Cisbio HTRF pERK assay, H358 cells. The following applies: H358 cells, 3 hrs compound, read-out: Inhibition (HTRF IC50 nM) of KRas-mediated Phosphorylation of ERK, H358.
In experiment [4] the test system is KRas-mediated Phosphorylation of ERK in AsPC-1 cells. The experiment can be described thus: Cisbio HTRF pERK assay, AsPC-1 cells. To be noted: 3 hrs compound, read-out: Inhibition (HTRF IC50 nM) of KRas-mediated Phosphorylation of ERK, AsPC-1.
The test system of experiment [5] is KRas-mediated Phosphorylation of ERK in HCT116 cells. The experiment can be described thus: Cisbio HTRF pERK assay, HCT116 cells. To be noted: HCT116 cells, 3 hrs compound, read-out: Inhibition (HTRF IC50 nM) of KRas-mediated Phosphorylation of ERK, HCT116.
Experiment [6] deals with KRas-mediated Phosphorylation of ERK in PSN1 cells. The experiment can be described thus: Cisbio HTRF pERK assay, PSN1 cells. To be noted: 3 hour compound, read-out: Inhibition (HTRF IC50 nM) of KRas-mediated Phosphorylation of ERK, PSN1. The procedure:
Inhibition of KRas Phosphorylation of ERK (HTRF) by Exemplary Compounds of Formula (I) • Cisbio HTRF Advanced pERK Assay Catalog #64AERPEH • Cell: MKN1, PSN1 • Procedure: • Day 1: Seed 6,000 cells/well −25 μl/well in 384-well white solid bottom plate; RPM1_10% FBS.

Experiment [7] relates to KRas-mediated Phosphorylation of ERK in H460 cells. Description: Cisbio HTRF pERK assay, H460 cells. The following applies: H460 cells, 3 hrs compound, read-out: Inhibition (HTRF IC50 nM) of KRas-mediated Phosphorylation of ERK, H460.

Take `C=C1CN2CCC[C@]2(COc2nc(N3CC4CCC(C3)N4)c3cc(Cl)c(-c4ccc(F)c5sc(N)c(C#N)c45)c(F)c3n2)C1` [Example 181, (S)-4-(4-((1R,5S)-3,8-diazabicyclo[3.2.1]octan-3-yl)-6-chloro-8-fluoro-2-(((R)-2-methylenetetrahydro-1H-pyrrolizin-7a(5H)-yl)methoxy)quinazolin-7-yl)-2-amino-7-fluorobenzo[b]thiophene-3-carbonitrile]: the IC50 in experiment [1] is greater than 10000 nM; in experiment [2], 8500 nM; in experiment [3], 4560 nM; in experiment [4], 950 nM; in experiment [5], 8030 nM; in experiment [6], 5260 nM. Also, the IC50 in experiment [7] amounted to 9660 nM.
Turning to `C=C1CN2CCC[C@@]2(COc2nc(N3CC4CCC(C3)N4)c3cc(Cl)c(-c4ccc(F)c5sc(N)c(C#N)c45)c(F)c3n2)C1` [Example 184, (R)-4-(4-((1R,5S)-3,8-diazabicyclo[3.2.1]octan-3-yl)-6-chloro-8-fluoro-2-(((S)-2-methylenetetrahydro-1H-pyrrolizin-7a(5H)-yl)methoxy)quinazolin-7-yl)-2-amino-7-fluorobenzo[b]thiophene-3-carbonitrile], the IC50 was 160 nM in experiment [1]; 610 nM in experiment [2]; 40 nM in experiment [3]; 1 nM in experiment [4]; 39 nM in experiment [5]; 701 nM in experiment [6]. Further, the IC50 in experiment [7] turned out to be 82 nM.
`N#Cc1c(N)sc2c(F)ccc(-c3c(Cl)cc4c(N5CCC5)nc(OC[C@@]56CCCN5C[C@H](F)C6)nc4c3F)c12` [Example 206, 2-amino-4-(4-(azetidin-1-yl)-6-chloro-8-fluoro-2-(((2R,7aS)-2-fluorotetrahydro-1H-pyrrolizin-7a(5H)-yl)methoxy)quinazolin-7-yl)-7-fluorobenzo[b]thiophene-3-carbonitrile]: the IC50 amounted to 244 nM in experiment [1] (Homo sapiens, A549, 3 h); 55 nM in experiment [2] (Homo sapiens, NCI-H727, 3 h); 60 nM in experiment [3] (Homo sapiens, NCI-H358, 3 h); 246 nM in experiment [4] (Homo sapiens, ASPC1, 3 h); 367 nM in experiment [5] (Homo sapiens, HCT-116, 3 h); 4890 nM in experiment [6] (Homo sapiens, PSN1, 3 h). Besides, the IC50 in experiment [7] (Homo sapiens, NCI-H460, 3 h) is 173 nM.
On to `CN(C)C(=O)n1cc2c(n1)CCCN(c1nc(OC[C@@]34CCCN3C[C@H](F)C4)nc3c(F)c(-c4ccc(F)c5sc(N)c(C#N)c45)c(Cl)cc13)C2` (atropisomer, axis not shown; (aS)) [Example 186, 5-((S)-7-(2-amino-3-cyano-7-fluorobenzo[b]thiophen-4-yl)-6-chloro-8-fluoro-2-(((2R,7aS)-2-fluorotetrahydro-1H-pyrrolizin-7a(5H)-yl)methoxy)quinazolin-4-yl)-N,N-dimethyl-5,6,7,8-tetrahydropyrazolo[4,3-c]azepine-2(4H)-carboxamide], for which the IC50 in experiment [1] was 382 nM; in experiment [2], 202 nM; in experiment [3] it was 98 nM; in experiment [4], 162 nM; in experiment [5] it was 670 nM; in experiment [6], greater than 10000 nM. Also, in experiment [7], the IC50 worked out at 341 nM.
For the compound `C=C1CN2CCC[C@@]2(COc2nc(N3CC4CCC(C3)N4)c3cc(Cl)c(-c4ccc(F)c5sc(N)c(C#N)c45)c(F)c3n2)C1` [Example 183, (S)-4-(4-((1R,5S)-3,8-diazabicyclo[3.2.1]octan-3-yl)-6-chloro-8-fluoro-2-(((S)-2-methylenetetrahydro-1H-pyrrolizin-7a(5H)-yl)methoxy)quinazolin-7-yl)-2-amino-7-fluorobenzo[b]thiophene-3-carbonitrile], the IC50 in experiment [1] is greater than 10000 nM; in experiment [2], greater than 10000 nM; in experiment [3] it was 6740 nM; in experiment [4], 254 nM; in experiment [5], 4800 nM; in experiment [6], 6150 nM. Moreover, the IC50 in experiment [7] worked out at 8090 nM.
Turning to `N#Cc1c(N)sc2c(F)ccc(-c3c(Cl)cc4c(NCCO)nc(OC[C@@]56CCCN5C[C@H](F)C6)nc4c3F)c12` [Example 205, 2-amino-4-(6-chloro-8-fluoro-2-(((2R,7aS)-2-fluorotetrahydro-1H-pyrrolizin-7a(5H)-yl)methoxy)-4-((2-hydroxyethyl)amino)quinazolin-7-yl)-7-fluorobenzo[b]thiophene-3-carbonitrile], the IC50 in experiment [1] (Homo sapiens, A549, 3 h) was 574 nM; in experiment [2] (Homo sapiens, NCI-H727, 3 h) it was 554 nM; in experiment [3] (Homo sapiens, NCI-H358, 3 h) it was 71 nM; in experiment [4] (Homo sapiens, ASPC1, 3 h), 1740 nM; in experiment [5] (Homo sapiens, HCT-116, 3 h) it was 985 nM; in experiment [6] (Homo sapiens, PSN1, 3 h), 7120 nM. In experiment [7] (Homo sapiens, NCI-H460, 3 h), the IC50 was determined as 690 nM.
Consider `N#Cc1c(N)sc2c(F)ccc(-c3c(Cl)cc4c(NCc5cn[nH]c5)nc(OC[C@@]56CCCN5C[C@H](F)C6)nc4c3F)c12` [Example 199, 4-(4-(((1H-pyrazol-4-yl)methyl)amino)-6-chloro-8-fluoro-2-(((2R,7aS)-2-fluorotetrahydro-1H-pyrrolizin-7a(5H)-yl)methoxy)quinazolin-7-yl)-2-amino-7-fluorobenzo[b]thiophene-3-carbonitrile], for which the IC50 in experiment [1] (Homo sapiens, A549, 3 h) came out at 1180 nM; in experiment [2] (Homo sapiens, NCI-H727, 3 h), 4090 nM; in experiment [3] (Homo sapiens, NCI-H358, 3 h), 232 nM; in experiment [4] (Homo sapiens, ASPC1, 3 h), 4200 nM; in experiment [5] (Homo sapiens, HCT-116, 3 h) it was 889 nM; in experiment [6] (Homo sapiens, PSN1, 3 h), 3860 nM. In addition, in experiment [7] (Homo sapiens, NCI-H460, 3 h), the half-inhibitory concentration (IC50) amounted to 462 nM.
For `N#Cc1c(N)sc2c(F)ccc(-c3c(Cl)cc4c(N5CCCn6nc(N)cc6C5)nc(OC[C@@]56CCCN5C[C@H](F)C6)nc4c3F)c12` [Example 187, 2-amino-4-(4-(2-amino-7,8-dihydro-4H-pyrazolo[1,5-a][1,4]diazepin-5(6H)-yl)-6-chloro-8-fluoro-2-(((2R,7aS)-2-fluorotetrahydro-1H-pyrrolizin-7a(5H)-yl)methoxy)quinazolin-7-yl)-7-fluorobenzo[b]thiophene-3-carbonitrile], the IC50 in experiment [1] (Homo sapiens, A549, 3 h) was 106 nM; in experiment [2] (Homo sapiens, NCI-H727, 3 h) it was 148 nM; in experiment [3] (Homo sapiens, NCI-H358, 3 h), 12 nM; in experiment [4] (Homo sapiens, ASPC1, 3 h), 41 nM; in experiment [5] (Homo sapiens, HCT-116, 3 h), 176 nM; in experiment [6] (Homo sapiens, PSN1, 3 h), 1060 nM. Besides, in experiment [7] (Homo sapiens, NCI-H460, 3 h), the IC50 is 78 nM.
For `N#Cc1c(N)sc2c(F)ccc(-c3c(Cl)cc4c(N5C=C(CCO)CCCC5)nc(OC[C@@]56CCCN5C[C@H](F)C6)nc4c3F)c12` [Example 190, 2-amino-4-(6-chloro-8-fluoro-2-(((2R,7aS)-2-fluorotetrahydro-1H-pyrrolizin-7a(5H)-yl)methoxy)-4-(6-(2-hydroxyethyl)-2,3,4,5-tetrahydro-1H-azepin-1-yl)quinazolin-7-yl)-7-fluorobenzo[b]thiophene-3-carbonitrile], the IC50 in experiment [1] (Homo sapiens, A549, 3 h) was 525 nM; in experiment [2] (Homo sapiens, NCI-H727, 3 h), 870 nM; in experiment [3] (Homo sapiens, NCI-H358, 3 h), 330 nM; in experiment [4] (Homo sapiens, ASPC1, 3 h), 627 nM; in experiment [5] (Homo sapiens, HCT-116, 3 h), 596 nM; in experiment [6] (Homo sapiens, PSN1, 3 h) it was 5570 nM. The IC50 in experiment [7] (Homo sapiens, NCI-H460, 3 h) worked out at 347 nM.
With `N#Cc1c(N)sc2c(F)ccc(-c3c(Cl)cc4c(N5CCCn6nc(N)c(Cl)c6C5)nc(OC[C@@]56CCCN5C[C@H](F)C6)nc4c3F)c12` (atropisomer, axis not shown; (aS)) [Example 189, 2-amino-4-((S)-4-(2-amino-3-chloro-7,8-dihydro-4H-pyrazolo[1,5-a][1,4]diazepin-5(6H)-yl)-6-chloro-8-fluoro-2-(((2R,7aS)-2-fluorotetrahydro-1H-pyrrolizin-7a(5H)-yl)methoxy)quinazolin-7-yl)-7-fluorobenzo[b]thiophene-3-carbonitrile], the IC50 in experiment [1] came out at 3350 nM; in experiment [2], 882 nM; in experiment [3], 327 nM; in experiment [4] it was 472 nM; in experiment [5], 2470 nM; in experiment [6] it was 7470 nM. For the same compound, the IC50 in experiment [7] was determined as 1530 nM.
